Converted amounts (≈) assume the structure as drawn.
Key:
[1] = Inhibition of quorum sensing system in Pseudomonas aeruginosa PAO1
[2] = system: Pseudomonas aeruginosa; test: Antibiofilm activity against Pseudomonas aeruginosa PA14 assessed as reduction in biofilm biomass production at 18 ug/ml relative to control; type: functional; design: scale not given: the % may be the effect or the level left; details: dose 18 µg/ml
[3] = system: Pseudomonas aeruginosa; test: Antibiofilm activity against Pseudomonas aeruginosa ATCC 27853 assessed as reduction in biofilm biomass at 16 ug/ml relative to control; type: functional; design: scale not given: the % may be the effect or the level left; details: dose 16 µg/ml
[4] = system: Pseudomonas aeruginosa; test: Antimicrobial activity against Pseudomonas aeruginosa assessed as reduction in microbial growth; type: functional, organism-based
[5] = system: Pseudomonas aeruginosa; test: Antibiofilm activity against Pseudomonas aeruginosa assessed as reduction in biofilm formation incubated for 24 hrs relative to control; type: functional; design: scale not given: the % may be the effect or the level left
[6] = system: Pseudomonas aeruginosa; test: Antibiofilm activity against Pseudomonas aeruginosa PAO1 assessed as inhibition of biofilm formation at 100 uM relative to control; type: functional; design: scale not given: the % may be the effect or the level left
[7] = system: Staphylococcus aureus; test: Antibacterial activity against Methicillin-resistant Staphylococcus aureus; type: functional
[8] = system: Escherichia coli; test: Antibacterial activity against Escherichia coli; type: functional
[9] = system: Bacillus pumilus; test: Antibacterial activity against Bacillus pumilus; type: functional
[10] = system: Bacillus subtilis; test: Antibacterial activity against Bacillus subtilis; type: functional
[11] = system: Pseudomonas aeruginosa; test: Antibacterial activity against Pseudomonas aeruginosa; type: functional
[12] = system: Staphylococcus aureus; test: Antibacterial activity against Methicillin-sensitive Staphylococcus aureus; type: functional
[13] = system: Pseudomonas aeruginosa; test: Antibacterial activity against Pseudomonas aeruginosa PAO1-L; type: functional, organism-based
[14] = system: Pseudomonas aeruginosa; test: Antivirulence activity against Pseudomonas aeruginosa PAO1 assessed as reduction in pyocyanin level at 10 uM relative to control; type: functional; design: scale not given: the % may be the effect or the level left
[15] = system: Pseudomonas aeruginosa; test: Antibacterial activity against Pseudomonas aeruginosa PAO1 assessed as reduction in bacterial growth by broth microdilution method; type: functional, organism-based
[16] = Inhibition of quorum sensing system in Pseudomonas aeruginosa PAO1 expressing lasB-gfp
[17] = system: Pseudomonas aeruginosa; test: Antimicrobial activity against Pseudomonas aeruginosa PAO1 assessed as inhibition of bacterial growth measured for 18 hrs by CLSI-based broth microdilution method; type: functional
[18] = system: Pseudomonas aeruginosa; test: Antibiofilm activity against Pseudomonas aeruginosa PAO1 assessed as inhibition of biofilm formation incubated for 24 hrs by crystal violet staining based assay; type: functional, organism-based; details: PAO1, 24 h
[19] = system: Pseudomonas aeruginosa; test: Anti-virulence effect in Pseudomonas aeruginosa PAO1 assessed as inhibition of rhamnolipid production at 10 uM relative to control; type: functional; design: scale not given: the % may be the effect or the level left
[20] = system: Pseudomonas aeruginosa; test: Antivirulence activity in Pseudomonas aeruginosa PAO1 assessed as reduction in pyocyanin production at 10 uM incubated for 24 hrs by absorbance based analysis relative to control; type: functional; design: scale not given: the % may be the effect or the level left
[21] = system: Pseudomonas aeruginosa; test: Antibacterial activity against Pseudomonas aeruginosa ATCC 15442 assessed as reduction in bacterial cell growth incubated for 24 hrs by two fold serial microdilution method; type: functional

Compound `O=C(CNc1ccc(C(=O)/C=C/c2ccc(Br)cc2)cc1)N[C@@H]1CCOC1=O` has an IC50 [1] of 46.8 µM.
Compound `COc1cc(/C=C/c2cncnc2)c(C(=O)O)c(O)c1CC=C(C)C` has an Activity [2] of 36.11%.
In the case of `Cc1ccc(CCOC(=O)/C=C/c2ccc(O)c(O)c2)cc1`, the Activity [3] is reported as 22.67%.
`O=C1c2ccc(NS(=O)(=O)c3ccc(Cl)cc3)cc2OC2C=C(O)C=C(O)C12` (stereo not drawn) showed an IC50 [4] of 100 µM and an Activity [5] of 50%.
With `O=c1c(O[C@@H]2O[C@H](CO)[C@@H](O)[C@H](O)[C@H]2O)c(-c2ccc(O)c(O)c2)oc2cc(O)cc(O)c12` [ISOQUERCETIN] the Activity [6] was 18%.
In the case of `O=C(CCCCCOc1ccc([N+](=O)[O-])cc1)NNC(=O)Cn1c(=O)oc2ncccc21`, the MIC [7] is reported as > 512 µg/mL, the MIC [8] is reported as > 512 µg/mL and the MIC [9] is reported as > 512 µg/mL. The MIC [10] was > 512 µg/mL, the MIC [11] was > 512 µg/mL and the MIC [12] was > 512 µg/mL.
Work on `N#CCc1ccc(OCC(=O)Cn2cnc3ccc(Cl)cc3c2=O)cc1` yielded an IC50 [13] of 4.3 µM.
With `COc1ccc(/C=C/C(=O)O)cc1OC` the Activity [3] was 15.79%.
For `COc1ccc(OCCCCCC(=O)NN2C(=O)CN(c3ccccc3O)C2=O)cc1`, the MIC [8] was > 512 µg/mL, the MIC [9] was > 512 µg/mL and the MIC [10] was > 512 µg/mL. The Activity [14] was 61%, the MIC [11] was > 512 µg/mL and the MIC [12] was > 512 µg/mL.
In the case of `O=C(CN[C@H]1CCOC1=O)Nc1ccc(C/C=C/c2ccc(Cl)c(Cl)c2)cc1`, the MIC [15] is reported as 5 µM (≈ 2.1 µg/mL).
`O=C(CN[C@H]1CCOC1=O)Nc1ccc(C/C=C/c2ccccc2)cc1` showed an MIC [15] of 5 µM (≈ 1.75 µg/mL).
In the case of `COc1cc(/C=C/c2cccc3cccnc23)c(C(=O)O)c(O)c1CC=C(C)C`, the Activity [2] is reported as 35.61%.
In the case of `N#CCc1ccc(OCC(N)Cn2cnc3ccc(Cl)cc3c2=O)cc1` (stereo not drawn), the IC50 [13] is reported as 4.3 µM and the IC50 [16] is reported as 2400 nM.
Compound `O=c1c(-c2ccc(O)cc2)coc2cc(O)cc(O)c12` [GENISTEIN] has an MIC [17] of 0.48 µg/mL (≈ 1.78 µM).
In the case of `O=c1cc(-c2ccc(O)c(O)c2)oc2c([C@H]3C[C@@H](O)[C@H](O)[C@@H](CO)O3)c(O)cc(O)c12`, the Activity [6] is reported as 18%.
With `COc1cc(O)c(C(=O)O)c(/C=C/c2ccc(S(F)(F)(F)(F)F)cc2)c1` the Activity [2] was 18.95%.
For `Cc1ccc(OCCCCCC(=O)NN2C(=O)CN(c3ccccc3O)C2=O)cc1`, the MIC [8] was > 512 µg/mL, the MIC [9] was > 512 µg/mL and the MIC [10] was > 512 µg/mL. The Activity [14] was 61%, the MIC [11] was > 512 µg/mL and the MIC [12] was > 512 µg/mL.
For `CCn1ccnc1`, the IC50 [18] was 400 nM.
Compound `N#CCc1ccc(OCC(O)Cn2cnc3ccc(Cl)cc3c2=O)c(F)c1` (stereo not drawn) has an IC50 [13] of 2.2 µM.
For `COc1ccc(OCCCCCCCC(=O)NNC(=O)Cn2c(=O)oc3ncccc32)cc1`, the MIC [7] was > 512 µg/mL, the MIC [8] was > 512 µg/mL and the MIC [9] was > 512 µg/mL. For the same compound, the MIC [10] was > 512 µg/mL, the Activity [19] was 6.34% and the Activity [14] was 53.1%. For the same compound, the MIC [11] was > 512 µg/mL and the MIC [12] was > 512 µg/mL.
`COc1cc(/C=C/c2ccc(S(F)(F)(F)(F)F)cc2)c(C(=O)O)c(O)c1CC=C(C)C` gave an Activity [2] of 50%.
Compound `N#CCc1ccc(OCC(F)Cn2cnc3ccc(Cl)cc3c2=O)cc1` (stereo not drawn) has an IC50 [13] of 4.3 µM.
In the case of `O=C(/C=C/c1ccc(O)c(O)c1)OCCc1ccc(Cl)cc1`, the Activity [3] is reported as 30.41%.
In the case of `O=C(CNc1ccc(C(=O)/C=C/c2ccc(Br)cc2F)cc1)N[C@@H]1CCOC1=O`, the IC50 [1] is reported as 26.5 µM.
`O=C1c2ccc(NS(=O)(=O)c3ccc(F)cc3)cc2OC2C=C(O)C=C(O)C12` (stereo not drawn) showed an IC50 [4] of 100 µM and an Activity [5] of 78%.
`O=Cc1ccc(O)c(O)c1` [PROTOCATECHUALDEHYDE] gave an Activity [6] of 18%.
In the case of `Clc1ccc2c(NCCCCCCCCNCc3cc4ccccc4s3)ccnc2c1`, the Activity [20] is reported as 97% and the MIC [21] is reported as > 2 µM.
In the case of `COP(=O)(NCCCCOc1cc(O)c2c(=O)cc(-c3ccccc3)oc2c1)OC`, the IC50 [4] is reported as 100 µM.
In the case of `COc1cc(O)c(C(=O)O)c(CCc2ccc(S(F)(F)(F)(F)F)cc2)c1`, the Activity [2] is reported as 19.48%.
For `COc1ccc(-c2coc3cc(O)cc(O)c3c2=O)cc1` [BIOCHANIN], the MIC [17] was 0.48 µg/mL (≈ 1.69 µM).
In the case of `CCCCCCCCNc1ccnc2cc(Cl)ccc12`, the Activity [20] is reported as 80% and the MIC [21] is reported as > 2 µM.
In the case of `COc1ccc(OCCCCC(=O)NNC(=O)Cn2c(=O)oc3ncccc32)cc1`, the MIC [7] is reported as > 512 µg/mL, the MIC [8] is reported as > 512 µg/mL and the MIC [9] is reported as > 512 µg/mL. For the same compound, the MIC [10] was > 512 µg/mL, the MIC [11] was > 512 µg/mL and the MIC [12] was > 512 µg/mL.
Work on `CC(C)OP(=O)(NCCCCOc1cc(O)c2c(=O)cc(-c3ccccc3)oc2c1)OC(C)C` yielded an IC50 [4] of 100 µM.
In the case of `FC(F)(F)c1ccc(CNCCCCCCCCNc2ccnc3cc(Cl)ccc23)cc1`, the Activity [20] is reported as 97% and the MIC [21] is reported as > 2 µM.
For `O=C(O)/C=C/c1ccc(O)c(O)c1` [CAFFEIC ACID], the Activity [3] was 33%.
